Source: US20260184663A1, “INDENE COMPOUNDS, PHARMACEUTICAL COMPOSITIONS THEREOF, AND THEIR THERAPEUTIC APPLICATIONS” (NucMito Pharmaceuticals co. Ltd., priority 2022, published 2026)
Like-named read-outs stand apart in the source and are kept apart here.

Legend:
Assay type in all cases: cell-based
[1] = test system: alpha-smooth muscle actin (α-SMA); experiment: Inhibition of TGF-β induced expression of alpha-smooth muscle actin (α-SMA) in CFSC cells (western blot); details: compound at 10 μM, TGF-β (10 ng/mL), 24 hours, band intensity vs TGF-β only
Method in brief: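 CFSC hepatic stellate cells in serum-free DMEM treated 24 h at 37 °C with compound at 10 μM plus TGF-β (10 ng/mL). α-SMA measured by Western blot with β-actin, ECL detection, densitometry. Percent inhibition is decrease in band intensity versus TGF-β-only cells.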

[2] = test system: MDA-MB-231 (breast cancer); experiment: Antiproliferative activity (CCK-8 cell viability), MDA-MB-231; details: Homo sapiens, 72 h, read-out: Antiproliferative activity in cancerous cells, MDA-MB-231 (inhibition of cell growth); for inhibition at 3.3 µM: Compound concentration: 3.3 μM; for inhibition at 10 µM: Compound concentration: 10 μM
Method in brief: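 MDA-MB-231 breast cancer cells, grown in DMEM with 10% FBS, were plated in 96-well plates at 2,000-5,000 cells/well. Once attached, they were exposed to compound and incubated at 37° C. for 72 h. Viability was then measured with CCK-8 (10 μL per well, 4 h at 37° C.) by absorbance at 450 nm, relative to DMSO vehicle wells.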

[3] = test system: HepG2 (liver cancer); experiment: Antiproliferative activity (CCK-8 cell viability), HepG2; details: Homo sapiens, 72 h; for inhibition at 3.3 µM: Compound concentration: 3.3 μM; for inhibition at 10 µM: Compound concentration: 10 μM; for inhibition at 30 µM: Compound concentration: 30 μM
Method in brief: (§1)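 Cells grown in DMEM (HepG2, SW480), MEM (HeLa) or F-12K (A549), each with 10% FBS, then exposed to compound at 3.3, 10 or 30 μM for 72 h at 37 °C. CCK-8 absorbance at 450 nm; viability expressed as percent of DMSO-treated cells, graded as growth inhibition bands.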

[4] = test system: SW480 (colon cancer); experiment: Antiproliferative activity (CCK-8 cell viability), SW480; details: Homo sapiens, 72 h, read-out: Antiproliferative activity in cancerous cells, SW480 (inhibition of cell growth); for inhibition at 3.3 µM: Compound concentration: 3.3 μM; for inhibition at 10 µM: Compound concentration: 10 μM
Method in brief: as §1

[5] = test system: B16F10 (malignant melanoma); experiment: Antiproliferative activity (CCK-8 cell viability), B16F10; details: Mus musculus, 72 h; for inhibition at 3.3 µM: B16-F10, Compound concentration: 3.3 μM; for inhibition at 10 µM: B16-F10, Compound concentration: 10 μM; for inhibition at 30 µM: B16-F10, Compound concentration: 30 μM
Method in brief: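 B16F10 melanoma cells grown in DMEM with 10% FBS were plated in 96-well plates at 2,000-5,000 cells/well. After attachment they were exposed to compound in medium for 72 h at 37° C. CCK-8 solution (10 μL) was then added, and after 4 h at 37° C absorbance was read at 450 nm.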

[6] = test system: A431 (epidermoid carcinoma); experiment: Antiproliferative activity (CCK-8 cell viability), A431; details: Homo sapiens, 72 h; for inhibition at 3.3 µM: A-431, Compound concentration: 3.3 μM; for inhibition at 10 µM: A-431, Compound concentration: 10 μM; for inhibition at 30 µM: A-431, Compound concentration: 30 μM
Method in brief: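 A431 epidermoid carcinoma cells grown in DMEM with 10% FBS were plated at 2,000-5,000 cells/well in 96-well plates. After attachment they were exposed to compound at 3.3 μM, 10 μM, or 30 μM for 72 h at 37° C. Viability was then assessed by CCK-8 against DMSO vehicle-treated wells.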

[7] = test system: A549 (lung adenocarcinoma); experiment: Antiproliferative activity (CCK-8 cell viability), A549; details: Homo sapiens, 72 h, read-out: Antiproliferative activity in cancerous cells, A549 (inhibition of cell growth); for inhibition at 3.3 µM: Compound concentration: 3.3 μM; for inhibition at 10 µM: Compound concentration: 10 μM
Method in brief: as §1

[8] = test system: HeLa (cervical cancer); experiment: Antiproliferative activity (CCK-8 cell viability), HeLa; details: Homo sapiens, 72 h; for inhibition at 3.3 µM: Compound concentration: 3.3 μM; for inhibition at 10 µM: Compound concentration: 10 μM; for inhibition at 30 µM: Compound concentration: 30 μM
Method in brief: as §1

[9] = read-out: Antiproliferative activity in cancerous cells, HepG2 (inhibition of cell growth)
[10] = read-out: Antiproliferative activity in cancerous cells, B16F10 (inhibition of cell growth)
[11] = read-out: Antiproliferative activity in cancerous cells, A431 (inhibition of cell growth)
[12] = read-out: Antiproliferative activity in cancerous cells, HELA (inhibition of cell growth)

| Compound | inhibition at 10 µM [1] [%] | inhibition at 3.3 µM [2] [%] | inhibition at 10 µM [2] [%] | inhibition at 3.3 µM [3, 9] [%] | inhibition at 10 µM [3, 9] [%] | inhibition at 3.3 µM [4] [%] | inhibition at 10 µM [4] [%] | inhibition at 3.3 µM [5, 10] [%] | inhibition at 10 µM [5, 10] [%] | inhibition at 3.3 µM [6, 11] [%] | inhibition at 10 µM [6, 11] [%] | inhibition at 3.3 µM [7] [%] | inhibition at 10 µM [7] [%] | inhibition at 3.3 µM [8, 12] [%] | inhibition at 10 µM [8, 12] [%] | also measured |
| --- | --- | --- | --- | --- | --- | --- | --- | --- | --- | --- | --- | --- | --- | --- | --- | --- |
| CC1=C(CC(=O)N2CCN(CCO)CC2)c2cc(F)ccc2/C1=C\c1ccc(Oc2ccc(F)cc2)cc1 [C37, (Z)-2-(5-Fluoro-1-(4-(4-fluorophenoxy)benzylidene)-2-methyl-1H-inden-3-yl)-1-(4-(2-hydroxyethyl)piperazin-1-yl)ethan-1-one] | > 80 | < 30 | < 30 | < 30 | < 30 | < 30 | < 30 | < 30 | < 30 | < 30 | < 30 | < 30 | < 30 | < 30 | < 30 | inhibition at 30 µM ([5]; read-out: Antiproliferative activity in cancerous cells, B16F10): < 30%; inhibition at 30 µM ([6]; read-out: Antiproliferative activity in cancerous cells, A431): 30 to 50%; inhibition at 30 µM ([8]; read-out: Antiproliferative activity in cancerous cells, HELA): < 30% |
| CC1=C(CCC(=O)O)c2ccccc2/C1=C\c1cccc(COc2ccccc2)c1 [B15, (Z)-3-(2-Methyl-1-(3-(phenoxymethyl)benzylidene)-1H-inden-3-yl)propanoic acid] | < 30 | < 30 | ≥ 50 | 30 to 50 | ≥ 50 | ≥ 50 | ≥ 50 | ≥ 50 | ≥ 50 | ≥ 50 | ≥ 50 | 30 to 50 | ≥ 50 | 30 to 50 | ≥ 50 |  |
| O=C(O)CC1=C(Cc2ccc(Oc3ccc(F)cc3)cc2)/C(=C/c2ccc(N3CCOCC3)cc2)c2ccc(F)cc21 [A102, (Z)-2-(5-Fluoro-2-(4-(4-fluorophenoxy)benzyl)-1-(4-morpholinobenzylidene)-1H-inden-3-yl)acetic acid] | > 80 | ≥ 50 | ≥ 50 | ≥ 50 | ≥ 50 | ≥ 50 | ≥ 50 | ≥ 50 | ≥ 50 | ≥ 50 | ≥ 50 | ≥ 50 | ≥ 50 | ≥ 50 | ≥ 50 |  |
| O=C(O)CC1=C(Cc2ccc(C(F)(F)F)cc2)/C(=C/c2ccc(Oc3ccc(F)cc3)cc2)c2ccc(F)cc21 [C11, (Z)-2-(5-Fluoro-1-(4-(4-fluorophenoxy)benzylidene)-2-(4-(trifluoromethyl)-benzyl)-1H-inden-3-yl)acetic acid] | > 80 | ≥ 50 | ≥ 50 | ≥ 50 | ≥ 50 | ≥ 50 | ≥ 50 | ≥ 50 | ≥ 50 | ≥ 50 | ≥ 50 | ≥ 50 | ≥ 50 | ≥ 50 | ≥ 50 |  |
| CC1=C(CC(=O)O)c2c(F)cc(F)cc2/C1=C\c1cccc(C(F)(F)F)c1 [D6, (Z)-2-(4,6-Difluoro-2-methyl-1-(3-(trifluoromethyl)benzylidene)-1H-inden-3-yl)-acetic acid] | < 30 | < 30 | < 30 | < 30 | < 30 | < 30 | < 30 | < 30 | < 30 | < 30 | < 30 | < 30 | < 30 | < 30 | < 30 | inhibition at 30 µM ([2]; Compound concentration: 30 μM): ≥ 50%; inhibition at 30 µM [3, 9]: 30 to 50%; inhibition at 30 µM ([4]; Compound concentration: 30 μM): 30 to 50%; inhibition at 30 µM [5, 10]: < 30%; inhibition at 30 µM [6, 11]: < 30%; inhibition at 30 µM ([7]; Compound concentration: 30 μM): ≥ 50%; inhibition at 30 µM [8, 12]: ≥ 50% |
| O=C(O)CC1=C(C2CCc3ccc(F)cc32)/C(=C/c2ccc(Oc3ccc(F)cc3)cc2)c2ccc(F)cc21 (centres unmarked) [C12, (Z)-2-(5′,6-Difluoro-1′-(4-(4-fluorophenoxy)benzylidene)-2,3-dihydro-1H,1′H-[1,2′-biinden]-3′-yl)acetic acid] | > 80 | ≥ 50 | ≥ 50 | ≥ 50 | ≥ 50 | ≥ 50 | ≥ 50 | ≥ 50 | ≥ 50 | ≥ 50 | ≥ 50 | ≥ 50 | ≥ 50 | ≥ 50 | ≥ 50 |  |
| COc1ccc2c(c1)/C(=C\c1ccc(OCc3ccccc3)cc1)C=C2CC(=O)O [A9, (Z)-2-(1-(4-(Benzyloxy)benzylidene)-6-methoxy-1H-inden-3-yl)acetic acid] | > 80 | < 30 | ≥ 50 | < 30 | < 30 | 30 to 50 | ≥ 50 | < 30 | < 30 | 30 to 50 | ≥ 50 | 30 to 50 | ≥ 50 | < 30 | 30 to 50 | inhibition at 30 µM ([3]; read-out: Antiproliferative activity in cancerous cells, HepG2): 30 to 50% |
| CC1=C(CC(=O)O)c2c(F)cccc2/C1=C\c1ccc(COc2ccccc2)cc1 [B6, (Z)-2-(4-Fluoro-2-methyl-1-(4-(phenoxymethyl)benzylidene)-1H-inden-3-yl)-acetic acid] | > 80 | ≥ 50 | ≥ 50 | < 30 | ≥ 50 | < 30 | < 30 | < 30 | 30 to 50 | < 30 | ≥ 50 | 30 to 50 | 30 to 50 | < 30 | ≥ 50 |  |
